Experimental data published in patent US5037980A, “Phenyl imidazo[1,2-a]pyrimidines” (American Cyanamid Company, priority 1988, dated 1991).

Assays:
[1] = tested on: spontaneously hypertensive rats; test: Mean arterial blood pressure in spontaneously hypertensive rats; assay type: in vivo, Okamoto strain); conditions: 100 mg/kg by gavage at 0 and 24 hours, measured at 28 hours, 1 rat; average of SHR used 170+1.5 mm of mercury
Method: The novel compounds of the present invention were tested for hypotensive activity by the method of P. S. Chan and D. W. Poorwin, Clin. Exptl. Hypertension, 1 (6): 817 (1979). Male, 16-20 week old, spontaneously hypertensive rats (SHR) of the Okamoto strain, from Taconic Farms, Germantown, New York, having an average mean arterial blood pressure of 170+1.5 mm of mercury are used in the test. One male adult SHR weighing about 300 g is dosed by gavage with a test compound, suspended in 2% pre-boiled starch at a concentration of 50 mg/ml, at a dose of 100 mg/kg of body weight or less, with 0.9% sodium chloride loading at a dose of 25 ml/kg of body weight, at zero hours. A second indentical dose of the test compound, without sodium chloride loading in given 24 hours later. At 28 hours after the initial dose the mean arterial blood pressure is measured by the method of Chan and Poorwin vide supra. The results of this test on representative compounds of the present invention appear below in Table IV.

[2] = tested on: brain-specific receptors; test: Inhibition of the binding of 3H-benzodiazepine to brain-specific receptors of rats; design: species or system rat (Wistar); conditions: 3H-flunitrazepam, rat whole cortex P2-synaptosomal fraction, pH 7.5, 30 minutes, 0° C.; test compound concentration not given
[3] = tested on: clonic seizures caused by pentylenetetrazole in rats; test: Protection against clonic seizures caused by pentylenetetrazole in rats; assay type: in vivo, rat; conditions: oral or i.p., pentylenetetrazole 23 mg/kg i.v. at 30 or 60 minutes
Method: The anti-anxiety properties of the novel compounds of the present invention have been established in a test which indicates anxiolytic activity by the measure of protection from convulsions resulting from the administration of pentylenetetrazole. Single or graded dose levels of the test compounds were administered orally or intraperitoneally in a 2% starch vehicle containing 0.5% v/v polyethylene glycol and one drop of polysorbate 80 or distilled water and one drop of polysorbate 80 to groups of at least 4 rats. At 30 or 60 minutes, the rats were treated intravenously with pentylenetetrazole at a dose of 23 mg/kg of body weight. This dose is estimated to cause clonic seizures in 99% of unprotected rats. It has been reported [R. T. Hill and D. H. Tedeschi, "Animal Testing and Screening Procedures in Evaluating Psychotropic Drugs" in "An Introduction to Psychopharmacology", Eds. R. R. Rech and K. E. Moore, Raven Press, New York, pp 237-288 (1971)] that there is a high degree of correlation between antagonism of pentylenetetrazole seizures in rats and anti-anxietyeffects in higher warm-blooded animals.

[4] = tested on: rats; test: Non-conditioned passive avoidance test in rats; assay type: in vivo, rat (Wistar); design: key: Active: considered active if the number of shocks received by the test group is significantly higher than the control group by the Mann-Whitney U test; conditions: oral or i.p., 30 or 60 minutes before test
Method: Another test used to assess anti-anxiety effects is a non-conditioned passive avoidance procedure described by J. R. Vogel, B. Beer and D. E. Clody. "A Simple and Reliable Conflict Procedure for Testing Anti-Anxiety Agents", Psychopharmacologia, 21, 1-7 (1971). A conflict situation is induced in rats by a modification of this method.
Groups of 8 naive, Wistar strain male rats weighing 200-240 g each were deprived of water for 48 hours. The test compounds were administered in single or graded, oral or intraperitoneal doses, suspended in distilled water and one drop of polysorbate 80. Control animals received the vehicle alone. At 30 or 60 minutes each rat was placed in an individual clear plexiglass chamber. Tap water was available ad libitum from a nipple located in a black plexiglass box off the main chamber. A 0.7 milliampere AC shocking current was established between the stainless steel grid floor and the tap. After 20 licks of non-shocked drinking, a 2 second shocking current was administered to the rat. This ratio of 20 licks of non-shocked drinking followed by a 2 second shock was continued for a total of 3 minutes. The number of shocks taken by each rat during the 3 minute interval was recorded and compared to a control group.

Row | SMILES | Mean Arterial Blood Pressure [1] | % Inhibition of 3H-benzodiazepine binding [2] | other results
1 | Clc1ccc(-c2ccnc3nccn23)c(Cl)c1 [5-(2,4-Dichlorophenyl)imidazo-[1,2-a]pyrimidine] | 111 | 11% | –
2 | FC(F)(F)c1cccc(-c2ccnc3nccn23)c1 [5-(α,α,α-Trifluoro-m-tolyl)imidazo[1,2-a]pyrimidine] | 126 | 46% | % of Rats Protected ([3]; dose 50 mg/kg): 100%; Result (non-conditioned passive avoidance) ([4]; dose 25.0 mg/kg): Active
3 | COc1cc(-c2ccnc3nccn23)cc(OC)c1OC [5-(3,4,5-Trimethoxyphenyl)imidazo-[1,2-a]pyrimidine] | 147 | – | % of Rats Protected ([3]; dose 25 mg/kg): 75%
4 | COc1cc(-c2cc(C)nc3nccn23)cc(OC)c1OC [7-Methyl-5-(3,4,5-trimethoxy-phenyl)imidazo[1,2-a]pyrimidine] | – | 10% | Result (non-conditioned passive avoidance) ([4]; dose 35.0 mg/kg): Active
5 | COc1ccc(-c2cc(C)nc3nccn23)cc1OC [5-(3,4-Dimethoxyphenyl)-7-methyl-imidazo[1,2-a]pyrimidine] | 148 | 46% | –
6 | Clc1cccc(-c2ccnc3nccn23)c1 [5-(3-Chlorophenyl)imidazo[1,2-a]-pyrimidine] | 146 | 37% | % of Rats Protected ([3]; dose 25 mg/kg): 50%; Result (non-conditioned passive avoidance) ([4]; dose 25.0 mg/kg): Active
7 | Cc1cc(-c2ccccc2F)n2ccnc2n1 [5-(2-Fluorophenyl)-7-methyl imidazo[1,2-a]pyrimidine] | – | 13% | –
8 | Cc1cc(-c2ccccc2)n2ccnc2n1 [7-Methyl-5-phenylimidazo[1,2-a]-pyrimidine] | – | 43% | –
9 | Brc1ccc(-c2ccnc3nccn23)cc1 [5-(4-Bromophenyl)imidazo[1,2-a]-pyrimidine] | 97 | – | –
10 | Cc1cc(-c2cccc(C(F)(F)F)c2)n2ccnc2n1 [7-Methyl-5-[3-(trifluoromethyl)phenyl]imidazo[1,2-a]pyrimidine] | 127 | 42% | –
11 | Cc1cc(-c2ccc(Cl)c(Cl)c2)n2ccnc2n1 [5-(3,4-Dichlorophenyl)-7-methyl-imidazo-[1,2-a]pyrimidine] | 119 | 22% | –
12 | Fc1ccccc1-c1ccnc2nccn12 [5-(2-Fluorophenyl)imidazo[1,2-a]-pyrimidine] | 121 | 49% | –
